Test results from article PMC6112376, “Comprehensive Analyses and Prioritization of Tox21 10K Chemicals Affecting Mitochondrial Function by in-Depth Mechanistic Studies” (Environmental Health Perspectives, 2018).
Counter-ions that a name gives are not always drawn. Like-named read-outs stand apart in the source and are kept apart here.

Assays:
[1] = system: Caenorhabditis elegans strain PE255; assay: In vivo C. elegans ATP status assay; conditions: for minimal effective concentration: Caenorhabditis elegans, read-out: LEC LUM: lowest effect concentration for luminescence, a measure of nematode ATP content
[2] = system: Caenorhabditis elegans (Bristol N2); assay: C. elegans larval development and growth assay; conditions: for minimal effective concentration: Caenorhabditis elegans, read-out: LEC EXT: lowest effect concentration for extinction, a measure of nematode size
[3] = system: rat primary hepatocytes
[4] = system: HepG2 cells; conditions: cited from earlier work
[5] = system: rat primary hepatocytes; assay: MMP assay in rat primary hepatocytes; conditions: for IC50: read-out: MMP assays IC50 (µM) Rat Hepatocytes
[6] = system: HepG2 cells; conditions: for IC50: read-out: MMP assays IC50 (µM) HepG2
[7] = read-out: MMP assays IC50 (µM) qHTS-HepG2
[8] = read-out: MMP assays IC50 (µM), qHTS-HepG2
[9] = HepG2 cells, single number from one experiment

| SMILES | MMP assays efficacy (%) Rat Hepatocytes [3] | MMP assays efficacy (%) qHTS-HepG2 [4] | IC50 [4, 7] | MMP assays IC50 (µM) Rat Hepatocytes [5] | MMP assays IC50 (µM) HepG2 [6] | MMP assays efficacy (%) HepG2 [6] | IC50 [5] | IC50 [6] | further results |
| --- | --- | --- | --- | --- | --- | --- | --- | --- | --- |
| CC(C)[C@@H]1NC(=O)[C@H](C)OC(=O)[C@@H](C(C)C)NC(=O)[C@@H](C(C)C)OC(=O)[C@H](C(C)C)NC(=O)[C@H](C)OC(=O)[C@@H](C(C)C)NC(=O)[C@@H](C(C)C)OC(=O)[C@H](C(C)C)NC(=O)[C@H](C)OC(=O)[C@@H](C(C)C)NC(=O)[C@@H](C(C)C)OC1=O [Valinomycin] |  |  |  |  |  |  |  |  | LUM: mean difference in luminescence (ATP content) relative to plate controls ([1]; 0.5 µM): -0.05222; LUM: mean difference in luminescence (ATP content) relative to plate controls ([1]; 1 µM): -0.06335; LUM: mean difference in luminescence (ATP content) relative to plate controls ([1]; 5 µM): 0.1958; LUM: mean difference in luminescence (ATP content) relative to plate controls ([1]; 10 µM): 0.3328; LUM: mean difference in luminescence (ATP content) relative to plate controls ([1]; 25 µM): 1.023; LUM: mean difference in luminescence (ATP content) relative to plate controls ([1]; 50 µM): 0.6115; LUM: mean difference in luminescence (ATP content) relative to plate controls ([1]; 75 µM): 0.5181; LUM: mean difference in luminescence (ATP content) relative to plate controls ([1]; 100 µM): 0.5717; minimal effective concentration [1]: 25 µM; EXT: mean difference in nematode size relative to plate controls ([2]; 0.5 µM): 0.09961; EXT: mean difference in nematode size relative to plate controls ([2]; 1 µM): 0.01293; EXT: mean difference in nematode size relative to plate controls ([2]; 5 µM): -0.07954; EXT: mean difference in nematode size relative to plate controls ([2]; 10 µM): -0.01187; EXT: mean difference in nematode size relative to plate controls ([2]; 25 µM): 0.0497; EXT: mean difference in nematode size relative to plate controls ([2]; 50 µM): 0.3415; EXT: mean difference in nematode size relative to plate controls ([2]; 75 µM): 0.411; EXT: mean difference in nematode size relative to plate controls ([2]; 100 µM): 0.3807; minimal effective concentration [2]: 50 µM |
| O=C1CCC(N2C(=O)c3ccccc3C2=O)C(=O)N1 (centres unmarked) [Thalidomide] |  |  |  |  |  |  |  |  | LUM: mean difference in luminescence (ATP content) relative to plate controls ([1]; 0.5 µM): 0.03143; LUM: mean difference in luminescence (ATP content) relative to plate controls ([1]; 1 µM): 0.01645; LUM: mean difference in luminescence (ATP content) relative to plate controls ([1]; 5 µM): 0.01511; LUM: mean difference in luminescence (ATP content) relative to plate controls ([1]; 10 µM): 0.04635; LUM: mean difference in luminescence (ATP content) relative to plate controls ([1]; 25 µM): 0.07311; LUM: mean difference in luminescence (ATP content) relative to plate controls ([1]; 50 µM): -0.2127; LUM: mean difference in luminescence (ATP content) relative to plate controls ([1]; 75 µM): 0.4289; LUM: mean difference in luminescence (ATP content) relative to plate controls ([1]; 100 µM): 0.7958; minimal effective concentration [1]: 75 µM; EXT: mean difference in nematode size relative to plate controls ([2]; 0.5 µM): 0.09319; EXT: mean difference in nematode size relative to plate controls ([2]; 1 µM): -0.00358; EXT: mean difference in nematode size relative to plate controls ([2]; 5 µM): 0.07925; EXT: mean difference in nematode size relative to plate controls ([2]; 10 µM): 0.0474; EXT: mean difference in nematode size relative to plate controls ([2]; 25 µM): 0.0694; EXT: mean difference in nematode size relative to plate controls ([2]; 50 µM): 0.4966; EXT: mean difference in nematode size relative to plate controls ([2]; 75 µM): 0.9805; EXT: mean difference in nematode size relative to plate controls ([2]; 100 µM): 0.9456; minimal effective concentration [2]: 50 µM |
| CN1C[C@H](C(=O)N[C@]2(C)O[C@@]3(O)[C@@H]4CCCN4C(=O)[C@H](Cc4ccccc4)N3C2=O)C=C2c3cccc4[nH]cc(c34)C[C@H]21 [Ergotamine D-tartrate] | inactive | -54±10% | 7.55 ± 1.06 µM | inactive | inactive | inactive |  |  |  |
| Oc1cc(Cl)c(Cl)cc1Cl.[Na] [2,4,5-Trichlorophenol sodium salt] | -130±56% | -99±23% | 5.05 ± 2.09 µM |  |  | -98% | 27.3 ± 25.2 µM | 10 µM |  |
| COc1cc([C@@H]2c3cc4c(cc3[C@@H](O)[C@H]3COC(=O)[C@H]23)OCO4)cc(OC)c1O [4'-Demethylepipodophyllotoxin] | inactive | -51±8% | 2.66 ± 3.92 µM | inactive |  | -63% |  | 2.18 µM |  |
| CCCCCCCC[P+](CCCCCCCC)(CCCCCCCC)CCCCCCCC.[Br-] [Tetraoctylphosphonium bromide] | -90±21% | -91±6% |  |  |  | -105% | 6.82 ± 2.23 µM | 0.32 µM | IC50 [4, 8]: 0.18 ± 0.12 µM |
| O=C1c2ccccc2C(=O)C1c1ccccc1 [Phenindione] | inactive | inactive |  | inactive | inactive | inactive |  |  | MMP assays IC50 (µM) qHTS-HepG2 [4]: inactive |
| CCCCCc1cc(O)c2c(c1)OC(C)(C)[C@@H]1CCC(C)=C[C@@H]21 | inactive | -124±8% | 4.99 ± 1.66 µM | inactive |  | -99% |  | 15.5 µM |  |
| Oc1ccc(C(c2ccc(O)cc2)C(Cl)(Cl)Cl)cc1 | -89±3% | -101±13% | 8.78 ± 1.43 µM |  |  | -103% | 33.2 ± 24.2 µM | 10 µM |  |
| Oc1ccc2ccccc2c1N=Nc1ccccc1 [C.I. Solvent yellow 14] | -86±4% | -69±8% | 5.84 ± 2.06 µM |  |  | -110% | 17 ± 10.6 µM | 15.8 µM |  |
| N=C(N)NN=C(/C=C/c1ccc([N+](=O)[O-])o1)/C=C/c1ccc([N+](=O)[O-])o1 [Nitrovin] | -89±11% | -94±2% |  |  |  | -118% | 16.4 ± 1.33 µM | 5.48 µM | IC50 [4, 8]: 3.27 ± 0.57 µM |
| CCN1CCC2(CC1)COc1cc3c(cc12)N(C(=O)c1ccc(-c2ccc(-c4nnc(C)o4)cc2C)cc1)CC3.Cl | -109±26% | -58±10% | 6.09 ± 2.54 µM |  |  | -111% | 40.9 ± 16 µM | 19.9 µM |  |
| CC(C)C[C@H]1C(=O)N2CCC[C@H]2[C@]2(O)O[C@](NC(=O)[C@@H]3C=C4c5cccc6[nH]c(Br)c(c56)C[C@H]4N(C)C3)(C(C)C)C(=O)N12 [Bromocriptine mesylate] | -74±34% | -111±8% | 11.2 ± 2.78 µM |  |  | -113% | 12.6 ± 1.6 µM | 13.5 µM |  |
| CCCCC(CC)C(=O)[O-].CCCCC(CC)C(=O)[O-].[Ba+2] (centres unmarked) [Barium bis(2-ethylhexanoate)] | -43±30% | -58±20% | 15.4 ± 10.3 µM | inactive | inactive | inactive |  |  |  |
| CCCCCCCCCCCC(=O)[O][Sn]([CH2]CCC)([CH2]CCC)[O]C(=O)CCCCCCCCCCC [Dibutyltin dilaurate] | -52+36% | inactive |  |  |  | -86% | 22.4 ± 7.17 µM | 27.5 µM | MMP assays IC50 (µM) qHTS-HepG2 [4]: inactive |
| CC=O [Acetaldehyde] | -52±35% | -90±14% | 18 ± 6.38 µM |  | inactive | inactive | 6.65 ± 4.48 µM |  |  |
| CCC1(c2ccccc2)C(=O)NC(=O)N(C(=O)c2ccccc2)C1=O (centres unmarked) [Benzobarbital] | inactive | -82±27% | 24.1 ± 5.12 µM | inactive | inactive | inactive |  |  |  |
| COc1ccc2c(=O)c(C)c(-c3ccccc3)oc2c1CN(C)C.Cl [Dimefline hydrochloride] | inactive | inactive |  | inactive | inactive | inactive |  |  | MMP assays IC50 (µM) qHTS-HepG2 [4]: inactive |
| Cc1ccc(-n2nc(C(C)(C)C)cc2NC(=O)Nc2ccc(OCCN3CCOCC3)c3ccccc23)cc1 [Doramapimod;BIBR-796?] | -77±5% |  | 21.1 ± 5.52 µM |  |  | -69% | 24.1 ± 9.54 µM | 21.8 µM |  |
| Cl.Nc1ccc(/N=N/c2ccccc2)c(N)c1 [C.I. Basic orange 2] | -34±7% | -82±19% | 7.53 ± 5.61 µM |  |  |  |  |  | IC50 ([5]; rat hepatocytes, mean ± SD of three experiments): 24.9 ± 21.1 µM; MMP assays efficacy (%) HepG2 [6, 9]: -113%; IC50 [6, 9]: 19.9 µM |
| Cc1cccc(C)c1OCC(=O)N[C@@H](Cc1ccccc1)[C@@H](O)C[C@H](Cc1ccccc1)NC(=O)[C@H](C(C)C)N1CCCNC1=O [Lopinavir;ABT-738] | -27±0% | -66±16% |  |  | inactive | inactive | 15.4 ± 21.8 µM |  | IC50 [4, 8]: 32.7 ± 1.32 µM |
| O=C1NCN(c2ccccc2)C12CCN(CCCOc1ccc(F)cc1)CC2 [AMI-193] | -37±21% | -73±11% | 5.82 ± 3.05 µM |  |  | -75% | 26 ± 12.2 µM | 7.74 µM |  |
